Converted amounts (≈) assume the structure as drawn. Like-named read-outs stand apart in the source and are kept apart here.
What was measured:
[1] = target: human CB2 receptors (Homo sapiens, UniProt P34972); details: read-out: Affinity; cited from earlier work
[2] = cited from earlier work
[3] = target: human CB1 receptors (Homo sapiens, UniProt P21554); details: read-out: Affinity; cited from earlier work
[4] = oral, human gastrointestinal tract; cited from earlier work
[5] = Drug solubility in supernatant of reconstituted suspension after ultracentrifugation (HPLC); type: physicochemical; details: room temperature
Method: The quantities of docetaxel, rapamycin and 17-AAG and human albumin in the supernatant were measured by high performance liquid chromatography (HPLC) and the results are summarized in Table 9.
The quantities of ixabepilone and rapamycin in the supernatant were measured by high performance liquid chromatography (HPLC) and the results are summarized in Table 18.

[6] = LBI-1103 (Lot RAD002) reconstituted suspension (5 mg/mL Docetaxel; 5 mg/mL Rapamycin and 10 mg/mL 17-AAG), 87,000 rpm 1 hour
[7] = LBI-0728 (Lot CRX001) reconstituted suspension (2 mg/mL Ixabepilone and 5 mg/mL Rapamycin), 87,000 rpm 1 hour

human CB1 receptors, sequence (P21554 whole entry): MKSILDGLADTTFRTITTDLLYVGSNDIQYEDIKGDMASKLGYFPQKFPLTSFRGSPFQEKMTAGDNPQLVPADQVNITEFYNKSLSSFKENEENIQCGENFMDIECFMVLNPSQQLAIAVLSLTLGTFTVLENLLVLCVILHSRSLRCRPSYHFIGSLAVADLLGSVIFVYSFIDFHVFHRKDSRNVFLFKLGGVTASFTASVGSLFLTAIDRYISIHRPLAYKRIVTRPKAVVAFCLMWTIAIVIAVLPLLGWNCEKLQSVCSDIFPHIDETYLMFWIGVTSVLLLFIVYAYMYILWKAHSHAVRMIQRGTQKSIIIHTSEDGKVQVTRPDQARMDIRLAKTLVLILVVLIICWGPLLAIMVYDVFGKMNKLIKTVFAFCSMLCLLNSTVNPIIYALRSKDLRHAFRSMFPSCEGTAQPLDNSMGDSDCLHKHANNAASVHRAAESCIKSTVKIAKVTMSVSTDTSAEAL
human CB2 receptors, sequence (P34972 whole entry): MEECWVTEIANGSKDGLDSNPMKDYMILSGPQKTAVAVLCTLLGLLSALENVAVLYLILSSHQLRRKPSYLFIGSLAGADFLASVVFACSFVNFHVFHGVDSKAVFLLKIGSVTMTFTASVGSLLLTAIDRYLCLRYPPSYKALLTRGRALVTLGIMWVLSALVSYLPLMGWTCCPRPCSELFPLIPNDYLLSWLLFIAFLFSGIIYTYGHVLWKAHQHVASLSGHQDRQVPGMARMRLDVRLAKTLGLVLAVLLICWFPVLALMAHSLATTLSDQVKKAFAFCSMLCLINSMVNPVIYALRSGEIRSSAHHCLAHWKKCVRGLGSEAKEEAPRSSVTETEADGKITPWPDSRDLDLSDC

Row | Compound | Solubility in water [2] | solubility [5, 6] [mg/mL] | other results
1 | CCCCCCC(C)(C)c1cc(O)c2c(c1)OC(C)(C)C1CCC(=O)CC21 (racemic) [Nabilone, (±)-trans-3-(1,1-dimethylheptyl)-6,6a,7,8,10,10a-hexahydro-1-hydroxy-6-6-dimethyl-9H-dibenzo[b,d]pyran-9-one] |  |  | Ki [1]: 1.8 nM; Solubility in water ([2]; pH values ranging from 1.2 to 7.0): less than 0.5 mg/L; Ki [3]: 2.2 nM; Absorption when administered orally [4]: completely absorbed
2 | CC(=O)O[C@@]12CO[C@@H]1C[C@H](O)[C@@]1(C)C(=O)[C@H](O)C3=C(C)[C@@H](OC(=O)[C@H](O)[C@@H](NC(=O)OC(C)(C)C)c4ccccc4)C[C@@](O)([C@@H](OC(=O)c4ccccc4)[C@H]21)C3(C)C [Docetaxel] | about 14 mg/L | 0.114 | 
3 | CO[C@H]1C[C@@H]2CC[C@@H](C)[C@@](O)(O2)C(=O)C(=O)N2CCCC[C@H]2C(=O)O[C@H]([C@H](C)C[C@@H]2CC[C@@H](OCCO)[C@H](OC)C2)CC(=O)[C@H](C)/C=C(\C)[C@@H](O)[C@@H](OC)C(=O)[C@H](C)C[C@H](C)/C=C/C=C/C=C/1C [Everolimus, 40-O-(2-Hydroxy)ethyl rapamycin] |  |  | solubility ([5]; LBI-0609 (Lot CEP002) reconstituted suspension (X mg/mL Everolimus and 5 mg/mL Paclitaxel), 87,000 rpm 1 hour): 0.014 mg/mL (≈ 14.6 µM)
4 | C=CCNC1=C2C[C@@H](C)C[C@H](OC)[C@H](O)[C@@H](C)/C=C(\C)[C@H](OC(N)=O)[C@@H](OC)/C=C\C=C(/C)C(=O)NC(=CC1=O)C2=O [Example 17AAG, 17-allylaminogeldanamycin] |  | 0.108 | 
5 | C/C(=C\c1csc(C)n1)[C@@H]1C[C@@H]2O[C@]2(C)CCC[C@H](C)[C@H](O)[C@@H](C)C(=O)C(C)(C)[C@@H](O)CC(=O)N1 [Ixabepilone] | about 3.5 mg/L |  | solubility [5, 7]: 0.407 mg/mL
6 | CC(=O)O[C@H]1C(=O)[C@@]2(C)[C@H]([C@H](OC(=O)c3ccccc3)[C@]3(O)C[C@H](OC(=O)[C@H](O)[C@@H](NC(=O)c4ccccc4)c4ccccc4)C(C)=C1C3(C)C)[C@]1(OC(C)=O)CO[C@@H]1C[C@@H]2O [Paclitaxel] | about 0.4 mg/L |  | Drug Solubility in Supernatant ([5]; LBI-0609 (Lot CEP002) reconstituted suspension (Everolimus and 5 mg/mL Paclitaxel), 87,000 rpm 1 hour): 0.082 mg/mL
7 | CO[C@H]1C[C@@H]2CC[C@@H](C)[C@@](O)(O2)C(=O)C(=O)N2CCCC[C@H]2C(=O)O[C@H]([C@H](C)C[C@@H]2CC[C@@H](O)[C@H](OC)C2)CC(=O)[C@H](C)/C=C(\C)[C@@H](O)[C@@H](OC)C(=O)[C@H](C)C[C@H](C)/C=C/C=C/C=C/1C [Rapamycin] | insoluble in water | 0.019 | solubility [5, 7]: 0.022 mg/mL
8 | CO[C@H]1C(=O)[C@]2(C)[C@@H](OC)C[C@H]3OC[C@@]3(OC(C)=O)[C@H]2[C@H](OC(=O)c2ccccc2)[C@]2(O)C[C@H](OC(=O)[C@H](O)[C@@H](NC(=O)OC(C)(C)C)c3ccccc3)C(C)=C1C2(C)C [cabazitaxel] | about 8 mg/L |  | 
